Measurements: the NIST ThermoML archive (doi:10.1021/acs.jced.6b00455)

Assay: mn = molality of the nth substance listed, in mol/kg
Settings: 101 kPa, Liquid, Alternating current cell with electrodes

C[N+](C)(C)CCO.O=C([O-])C(F)(F)C(F)(F)C(F)(F)C(F)(F)C(F)(F)C(F)(F)C(F)(F)F [(2-hydroxyethyl)trimethylammonium perfluorooctanoate] + O
Settings	electrical conductivity [S/m]
293.15 K, m1 = 7.6e-05	0.0005
293.15 K, m1 = 0.000243	0.0015
293.15 K, m1 = 0.000338	0.0021
293.15 K, m1 = 0.000489	0.0031
293.15 K, m1 = 0.000626	0.0039
293.15 K, m1 = 0.000747	0.0046
293.15 K, m1 = 0.000847	0.0053
293.15 K, m1 = 0.000968	0.0061
293.15 K, m1 = 0.001108	0.007
293.15 K, m1 = 0.001301	0.008
293.15 K, m1 = 0.001463	0.0091
293.15 K, m1 = 0.001591	0.0098
293.15 K, m1 = 0.001689	0.0106
293.15 K, m1 = 0.00186	0.0114
293.15 K, m1 = 0.001996	0.0123
293.15 K, m1 = 0.002117	0.0129
293.15 K, m1 = 0.00224	0.0138
293.15 K, m1 = 0.002376	0.0145
293.15 K, m1 = 0.002497	0.0153
293.15 K, m1 = 0.00262	0.016
293.15 K, m1 = 0.002737	0.0167
293.15 K, m1 = 0.002945	0.018
293.15 K, m1 = 0.00309	0.0188
293.15 K, m1 = 0.003212	0.0196
293.15 K, m1 = 0.003363	0.0202
293.15 K, m1 = 0.003476	0.0208
293.15 K, m1 = 0.003596	0.0216
293.15 K, m1 = 0.003714	0.0222
298.15 K, m1 = 6.2e-05	0.0004
298.15 K, m1 = 0.000138	0.0009
298.15 K, m1 = 0.00019	0.0013
298.15 K, m1 = 0.000258	0.0018
298.15 K, m1 = 0.000317	0.0022
298.15 K, m1 = 0.000375	0.0026
298.15 K, m1 = 0.000432	0.003
298.15 K, m1 = 0.000488	0.0034
298.15 K, m1 = 0.000547	0.0038
298.15 K, m1 = 0.000619	0.0044
298.15 K, m1 = 0.000704	0.0049
298.15 K, m1 = 0.00077	0.0054
298.15 K, m1 = 0.000828	0.006
298.15 K, m1 = 0.00091	0.0066
298.15 K, m1 = 0.000999	0.0072
298.15 K, m1 = 0.001085	0.0078
298.15 K, m1 = 0.001174	0.0084
298.15 K, m1 = 0.001268	0.009
298.15 K, m1 = 0.001353	0.0096
298.15 K, m1 = 0.001452	0.0102
298.15 K, m1 = 0.001544	0.0109
298.15 K, m1 = 0.001654	0.0115
298.15 K, m1 = 0.001755	0.0119
298.15 K, m1 = 0.00185	0.0125
298.15 K, m1 = 0.001933	0.013
298.15 K, m1 = 0.002054	0.0138
298.15 K, m1 = 0.002177	0.0146
298.15 K, m1 = 0.002284	0.0152
298.15 K, m1 = 0.00241	0.016
298.15 K, m1 = 0.002525	0.0167
298.15 K, m1 = 0.002643	0.0174
298.15 K, m1 = 0.002738	0.018
298.15 K, m1 = 0.002963	0.0194
298.15 K, m1 = 0.003158	0.0205
298.15 K, m1 = 0.003285	0.0213
298.15 K, m1 = 0.003418	0.0221
298.15 K, m1 = 0.003542	0.0228
298.15 K, m1 = 0.00364	0.0234
298.15 K, m1 = 0.003768	0.0242
298.15 K, m1 = 0.003952	0.0253
298.15 K, m1 = 0.004493	0.0287
298.15 K, m1 = 0.005611	0.0355
298.15 K, m1 = 0.006271	0.0391
298.15 K, m1 = 0.006873	0.0424
298.15 K, m1 = 0.007507	0.0463
303.15 K, m1 = 6.9e-05	0.0006
303.15 K, m1 = 0.000173	0.0013
303.15 K, m1 = 0.000265	0.002
303.15 K, m1 = 0.000396	0.0031
303.15 K, m1 = 0.000504	0.0039
303.15 K, m1 = 0.000614	0.0048
303.15 K, m1 = 0.000711	0.0055
303.15 K, m1 = 0.000794	0.0061
303.15 K, m1 = 0.000992	0.0077
303.15 K, m1 = 0.001091	0.0084
303.15 K, m1 = 0.001177	0.0091
303.15 K, m1 = 0.00129	0.0099
303.15 K, m1 = 0.001381	0.0105
303.15 K, m1 = 0.001497	0.0113
303.15 K, m1 = 0.001589	0.012
303.15 K, m1 = 0.001698	0.0128
303.15 K, m1 = 0.002339	0.0176
303.15 K, m1 = 0.002615	0.0196
303.15 K, m1 = 0.002737	0.0204
303.15 K, m1 = 0.002834	0.021
303.15 K, m1 = 0.002921	0.0216
303.15 K, m1 = 0.003011	0.0222
303.15 K, m1 = 0.003103	0.0229
303.15 K, m1 = 0.003204	0.0237
303.15 K, m1 = 0.003323	0.0244
303.15 K, m1 = 0.003408	0.025
303.15 K, m1 = 0.003487	0.0256
303.15 K, m1 = 0.003599	0.0264
303.15 K, m1 = 0.003701	0.0271
303.15 K, m1 = 0.003815	0.0279
303.15 K, m1 = 0.003911	0.0285
303.15 K, m1 = 0.004027	0.0293
303.15 K, m1 = 0.004122	0.03
303.15 K, m1 = 0.004288	0.0311
303.15 K, m1 = 0.004393	0.0318
303.15 K, m1 = 0.004492	0.0325
303.15 K, m1 = 0.004585	0.0331
303.15 K, m1 = 0.004679	0.0337
303.15 K, m1 = 0.004785	0.0345
308.15 K, m1 = 6.9e-05	0.0006
308.15 K, m1 = 0.000131	0.0012
308.15 K, m1 = 0.000188	0.0016
308.15 K, m1 = 0.000233	0.002
308.15 K, m1 = 0.000278	0.0024
308.15 K, m1 = 0.000329	0.0029
308.15 K, m1 = 0.000372	0.0032
308.15 K, m1 = 0.000407	0.0035
308.15 K, m1 = 0.000451	0.0039
308.15 K, m1 = 0.000486	0.0043
308.15 K, m1 = 0.000545	0.0048
308.15 K, m1 = 0.000576	0.0051
308.15 K, m1 = 0.000628	0.0055
308.15 K, m1 = 0.000669	0.0059
308.15 K, m1 = 0.000706	0.0062
308.15 K, m1 = 0.000758	0.0067
308.15 K, m1 = 0.000796	0.007
308.15 K, m1 = 0.000831	0.0073
308.15 K, m1 = 0.000864	0.0076
308.15 K, m1 = 0.0009	0.0079
308.15 K, m1 = 0.000934	0.0082
308.15 K, m1 = 0.000981	0.0087
308.15 K, m1 = 0.001026	0.0091
308.15 K, m1 = 0.00106	0.0094
308.15 K, m1 = 0.001098	0.0097
308.15 K, m1 = 0.001138	0.0101
308.15 K, m1 = 0.001211	0.0107
308.15 K, m1 = 0.001265	0.0112
308.15 K, m1 = 0.001299	0.0114
308.15 K, m1 = 0.001362	0.012
308.15 K, m1 = 0.001397	0.0123
308.15 K, m1 = 0.001445	0.0127
308.15 K, m1 = 0.0015	0.0132
308.15 K, m1 = 0.001539	0.0136
308.15 K, m1 = 0.001701	0.015
308.15 K, m1 = 0.001808	0.0159
308.15 K, m1 = 0.001958	0.0173
308.15 K, m1 = 0.002148	0.0189
308.15 K, m1 = 0.002371	0.0209
308.15 K, m1 = 0.0025	0.022
308.15 K, m1 = 0.002602	0.0229
308.15 K, m1 = 0.002723	0.0239
308.15 K, m1 = 0.00288	0.0253
308.15 K, m1 = 0.003015	0.0265
308.15 K, m1 = 0.003126	0.0274
308.15 K, m1 = 0.00328	0.0287
308.15 K, m1 = 0.003401	0.0297
308.15 K, m1 = 0.003526	0.0308
308.15 K, m1 = 0.003657	0.0319
308.15 K, m1 = 0.003764	0.0328
308.15 K, m1 = 0.003883	0.0337
308.15 K, m1 = 0.003991	0.0346
308.15 K, m1 = 0.004106	0.0356
308.15 K, m1 = 0.00422	0.0365
308.15 K, m1 = 0.004341	0.0375
308.15 K, m1 = 0.004478	0.0386
308.15 K, m1 = 0.004597	0.0396
308.15 K, m1 = 0.004723	0.0405
313.15 K, m1 = 0.000143	0.0013
313.15 K, m1 = 0.000274	0.0026
313.15 K, m1 = 0.000394	0.0038
313.15 K, m1 = 0.000543	0.005
313.15 K, m1 = 0.00064	0.006
313.15 K, m1 = 0.000773	0.0073
313.15 K, m1 = 0.000904	0.0087
313.15 K, m1 = 0.001044	0.0101
313.15 K, m1 = 0.001221	0.012
313.15 K, m1 = 0.001372	0.0134
313.15 K, m1 = 0.001554	0.0149
313.15 K, m1 = 0.001697	0.0164
313.15 K, m1 = 0.001835	0.0178
313.15 K, m1 = 0.002088	0.02
313.15 K, m1 = 0.002327	0.0222
313.15 K, m1 = 0.002528	0.0242
313.15 K, m1 = 0.002879	0.0274
313.15 K, m1 = 0.003226	0.0306
313.15 K, m1 = 0.003438	0.0318
313.15 K, m1 = 0.003602	0.0333
313.15 K, m1 = 0.003774	0.035
313.15 K, m1 = 0.004014	0.037
313.15 K, m1 = 0.00417	0.0382
313.15 K, m1 = 0.004352	0.0397
313.15 K, m1 = 0.004528	0.0415
313.15 K, m1 = 0.004708	0.043
313.15 K, m1 = 0.004876	0.0446
313.15 K, m1 = 0.005072	0.0463
313.15 K, m1 = 0.005237	0.0477
